The data set can be described thus: solvent given as SMILES.

Molecules are shown by their SMILES.

`O=c1c2ccccc2c2c(C#C[Si](c3ccccc3)(c3ccccc3)c3ccccc3)c3c(=O)c4ccccc4c3c(C#C[Si](c3ccccc3)(c3ccccc3)c3ccccc3)c12` displayed an emission maximum (in ClC(Cl)Cl) of 570 nm.

For `COc1ccc(N(c2ccc(OC)cc2)c2ccc(-c3ccc(C=C(C#N)C#N)cc3)cc2)cc1`, the emission maximum (in ClC(Cl)Cl) was 696 nm.

On to `COc1cccc(OC)c1C1=C2C(C)=CC(C)=[N+]2[B-](F)(F)n2c(C)cc(C)c21`, for which the emission maximum by setting is: (in C1CCOC1) 520 nm; (in CC#N) 513 nm; (in CC(=O)C(C)(C)C) 520 nm; (in CC(C)=O) 516 nm; (in CCCCCC) 519 nm; (in CCOC(C)=O) 520 nm. Also, for the setting “in CO”, the emission maximum is recorded as 518 nm.

On to `CN(C)c1ccc(/C=C/c2cnc(/C=C/c3ccc(C#N)cc3)o2)cc1`, for which, where the note is “in ClCCl”, the emission maximum is 640 nm.

For the setting “in CS(C)=O”, `N#CC1=C(N)n2c(=O)c3ccccc3c(=O)n2C1c1ccc([N+](=O)[O-])cc1` (configuration not stated) displayed an emission maximum of 575 nm.

The compound `Cc1ccsc1-c1ccc(-c2ccc(-c3sccc3C)s2)s1` displayed an emission maximum (in CCCCCCCCCCCCCC) of 473 nm.

`CCCCCCN(CCCCCC)c1ccc(C#Cc2ccc(/C=C/c3ccc(-c4ccc(/C=C/c5ccc(C#Cc6ccc(N(CCCCCC)CCCCCC)cc6)cc5)cc4)cc3)cc2)cc1`: the emission maximum (in Cc1ccccc1) is on record as 452 nm.

Regarding `C(#Cc1ccccc1)C(C#Cc1ccccc1)=Cc1cccc(C=C(C#Cc2ccccc2)C#Cc2ccccc2)c1`, for the setting “in ClC(Cl)Cl”, the emission maximum worked out at 413 nm.

`COc1ccc(-c2ccc(-c3ccc(OC)cc3)c3nc(-c4ccccc4)c(-c4ccccc4)nc23)cc1`: the emission maximum came to 504 nm (in C1CCOC1); 512 nm (in CC#N); 477 nm (in CCCCCC); 514 nm (in CN(C)C=O); 492 nm (in Cc1ccccc1); 502 nm (in ClC(Cl)Cl).

For the compound `F[B-]1(F)n2c(cc3ccc4ccccc4c32)C(c2ccc(I)cc2)=C2C=C3CCc4ccccc4C3=[N+]21`, the emission maximum (in ClC(Cl)Cl) amounted to 668 nm.

Compound `CCn1c2ccc(-c3cccs3)cc2c2cc(-c3cccs3)ccc21` displayed an emission maximum (in ClCCl) of 392 nm.

Under “in ClC(Cl)Cl”, `CCc1cc(CC)cc(-n2c3ccccc3c3cc4c(cc32)c2ccccc2n4-c2cc(CC)cc(CC)c2)c1` displayed an emission maximum of 416 nm.

`Cc1ccc2nc3[nH]c(=O)[nH]c(=O)c3nc2c1C` had an emission maximum (in CC#N) of 469 nm.

Compound `c1cc2ccc3cc4[nH]c(-c5cc6c(cc7ccc8cccc9ccc6c7c89)[nH]5)cc4c4ccc(c1)c2c34` registered an emission maximum (in C1CCOC1) of 482 nm.

Turning to `CNc1cccc2c1C(=O)c1ccccc1-2`, the emission maximum reads like this: (in C1CCCCC1) 497 nm; (in CC#N) 533 nm; (in CCO) 542 nm; (in c1ccccc1) 519 nm.

`CC1=C(I)C(C)=[N+]2C1=C(c1c(-c3ccccn3)nc3ccccn13)c1c(C)cc(C)n1[B-]2(F)F` displayed an emission maximum (in ClCCl) of 558 nm.

For the compound `CCC12C(=C3C(=C4c5ccc(-c6ccc(C(C)=O)cc6)cc5S(=O)(=O)C41CC)C(F)(F)C(F)(F)C3(F)F)c1ccc(-c3ccc(C(C)=O)cc3)cc1S2(=O)=O` (configuration not stated), the emission maximum (in C1COCCO1) is given as 561.95 nm.

Consider `c1ccc(/C(=C(\c2ccccc2)c2cc(-c3ccc(-c4ccccc4)cc3)ccc2-c2ccc(-c3ccccc3)cc2)c2cc(-c3ccc(-c4ccccc4)cc3)ccc2-c2ccc(-c3ccccc3)cc2)cc1`, for which the emission maximum (in C1CCOC1) came out at 496 nm.

For the compound `COc1ccc(-c2c3ccccc3c3n2[B-](F)(F)[N+]2=Cc4c5ccccc5c(-c5ccc(OC)cc5)n4[B-](F)(F)[N+]2=C3)cc1`, the emission maximum by setting is: (in CC#N) 606 nm; (in CCCCCC) 607 nm; (in CN(C)C=O) 613 nm; (in Cc1ccccc1) 616 nm; (in ClCCl) 614 nm.

On to `CCCCN(CCCC)c1ccc(C#Cc2cc(C#Cc3ccc(C#N)cc3)c(C#Cc3ccc(C#N)cc3)cc2C#Cc2ccc(N(CCCC)CCCC)cc2)cc1`, for which the emission maximum by setting is: (in ClCCl) 563 nm; (in c1ccccc1) 508 nm.

In turn, `CC(C)(C)Nc1oc(C=Cc2ccccc2)c(C(=O)OC(C)(C)C)c1C(=O)OC(C)(C)C` came in with an emission maximum (in CC#N) of 460 nm.

In the case of `CCCn1c(=O)c(/C=C/c2nc3ccc(C)cc3n(CCC)c2=O)nc2ccc(C)cc21`, the emission maximum is reported as 484 nm (in C1COCCO1), 502 nm (in CC#N) and 490 nm (in ClCCl).

`Clc1ccc(-c2nc3ccccc3n2-c2ccccc2)cc1` displayed an emission maximum (in CC#N) of 367 nm.

`CN(C)c1ccc(-c2cc(-c3cccs3)nc(-c3ccccc3)n2)cc1`: the emission maximum (in ClC(Cl)Cl) was 473 nm.

For the compound `c1ccc(Nc2nc(Nc3ccccc3)nc(Nc3ccc4ccc5cccc6ccc3c4c56)n2)cc1`, the emission maximum runs as follows: (in CC#N) 395 nm; (in CCCCOCCCC) 394 nm; (in CO) 395 nm.

For `CN(C)c1cc2c(cc1F)c(=O)c1cc(F)c(N(C)C)cc1n2C`, under “in CCO”, the emission maximum is 441 nm.

Where the note is “in ClCCl”, `c1ccc(N(c2ccccc2)c2ccc(-n3ccc4cc(-c5ccc(C6(c7ccccc7)c7ccccc7-c7ccccc76)cc5)ccc43)cc2)cc1` came in with an emission maximum of 379 nm.

As for `CN(C)c1ccc(-c2nc3nccnc3n2-c2ccccc2)cc1`, the emission maximum (in CC#N) is 477 nm.

Compound `CCCCCC(=O)c1cccc2sc3c(c12)P(=O)(c1ccccc1)c1ccccc1-3` (configuration not stated) registered an emission maximum (in ClCCl) of 427 nm.

Where the note is “in ClC(Cl)Cl”, `CCCN1c2ccccc2Sc2cc(/C=C\c3cc(=O)oc4cc(C)ccc34)ccc21` gave an emission maximum of 631 nm.

Regarding `COc1ccc2c(c1)c1ccc3cccc4c5cccc6oc(=O)c2c(c65)c1c34`, where the note is “in C1CCOC1”, the emission maximum was 440 nm.

Regarding `c1ccc(-c2c3ccccc3c(-c3cncnc3)c3ccccc23)cc1`, the emission maximum is 441 nm (in CCO) and 414 nm (in ClCCl).

For the compound `COc1ccc(C2=C(c3ccc(OC)cc3)C(c3ccccc3)=[N+]3C2=Nc2c(-c4ccc(OC)cc4)c(-c4ccc(OC)cc4)c(-c4ccccc4)n2[B-]3(F)F)cc1`, the emission maximum (in Cc1ccccc1) was 750 nm.

With `Cc1nnc(-c2cc(-n3c4ccccc4c4ccccc43)c(-n3c4ccccc4c4ccccc43)cc2-c2nnc(C)o2)o1`, the emission maximum (in CC#N) is 504.62 nm, the emission maximum (in Cc1ccccc1) was found to be 453 nm and the emission maximum (in ClCCl) worked out at 485.51 nm.

Take `c1ccc(-c2cc3cccc4cc(-c5ccccc5)c5cc(-c6cc7[b-]8c(c6)c(-c6ccccc6)cc6cccc(cc7-c7ccccc7)[n+]86)cc2[b-]5[n+]34)cc1`: the emission maximum (in C1CCCCC1) came to 521 nm.

With `O=c1oc2ccccc2cc1-c1ccc([N+](=O)[O-])cc1`, the emission maximum (in C1CCOC1) is listed as 421 nm, the emission maximum (in CC#N) amounted to 409 nm, the emission maximum (in CS(C)=O) turned out to be 425 nm and the emission maximum (in ClC(Cl)Cl) worked out at 400 nm.

In the case of `F[B-]1(F)OC(c2ccc(C(F)(F)F)cc2)=Cc2ccc3ccccc3[n+]21`, under “in ClC(Cl)Cl”, the emission maximum worked out at 434 nm.

For `CCCC1(CCC)c2ccccc2-c2ccccc21`, under “in C1CCCCC1”, the emission maximum is listed as 309 nm.

For the compound `COc1ccc(C(=O)NC(C)(C)C)c2c1ccc1c3ccccc3c3ccccc3c12`, where the note is “in ClCCl”, the emission maximum is on record as 407 nm.

The compound `CCCCCCn1c2ccccc2c2cc(-c3ccc(-c4cc(-c5ccccn5)nc(-c5ccccn5)c4)cc3)ccc21` yielded an emission maximum (in ClCCl) of 447 nm.

Turning to `CCN(CC)c1ccc(/C=C/C2=[O+][B-](F)(F)Oc3c2c(=O)oc2cc(N(CC)CC)ccc32)cc1`, the emission maximum by setting is: (in C1CCCCC1) 556 nm; (in C1COCCO1) 610 nm; (in CC#N) 644 nm; (in CC(C)=O) 636 nm; (in CCO) 635 nm; (in CCOC(C)=O) 617 nm. In addition, the emission maximum by setting is: (in CO) 637 nm; (in CS(C)=O) 659 nm; (in Cc1ccccc1) 597 nm; (in ClC(Cl)Cl) 622 nm; (in ClCCl) 634 nm; (in OCC(O)CO) 654 nm. The emission maximum (in OCCO) is 653 nm.

As for `CCOC(=O)c1c(-c2cc3ccc(OC)cc3oc2=O)nn(-c2cccc(C)c2)c1C(=O)OCC`, where the note is “in ClCCl”, the emission maximum turned out to be 422 nm.

Regarding `COc1ccc(NC(=O)C(C(=O)Nc2ccc(OC)cc2)C(c2cc(F)ccc2O)c2c[nH]c3ccc(OC)cc23)cc1` (configuration not stated), the emission maximum (in CS(C)=O) turned out to be 341 nm.

`CC[n+]1nc2cc3c4c(c2c2ccccc21)CCCN4CCC3`: the emission maximum (in O) was 570 nm.

On to `CCCCCCCCOc1ccc(-c2c3c4n(c(-c5ccc(OCCCCCCCC)cc5)c3c3n2[B-](F)(F)[n+]2c(sc5ccccc52)N=3)[B-](F)(F)[n+]2c(sc3ccccc32)N=4)cc1`, for which, for the setting “in ClC(Cl)Cl”, the emission maximum is 676 nm.

For the compound `Cc1cc(O)c(C(=O)/C=C/c2ccc(O)c(O)c2)c(=O)o1`, the emission maximum turned out to be 518 nm (in CC#N) and 493 nm (in ClCCl).

Turning to `CCC(C)(C)c1ccc2c(c1)C(CC)(CC)c1cc(-c3ccc(-c4ccc5c(c4)C(CC)(CC)c4cc(C(C)(C)CC)ccc4-5)cc3)ccc1-2`, the emission maximum (in C1CCCCC1) came out at 381 nm.

The compound `Nc1ccc2c(c1)NC(=O)CC(=O)N2` showed an emission maximum (in CS(C)=O) of 385 nm.

As for `CN(C)c1ccc2nc(/C=C/c3ccccc3)c(=O)oc2c1`, the emission maximum runs as follows: (in C1CCCCC1) 488 nm; (in C1COCCO1) 533 nm; (in CC#N) 567 nm; (in CC(C)=O) 557 nm; (in CCCCCCC) 485 nm; (in CCO) 574 nm. The emission maximum (in CCOC(C)=O) stood at 541 nm; the emission maximum (in CN(C)C=O) worked out at 571 nm; the emission maximum (in CS(C)=O) is recorded as 581 nm; the emission maximum (in Cc1ccccc1) is 523 nm; the emission maximum (in ClC(Cl)Cl) came to 542 nm; the emission maximum (in ClCCl) is on record as 547 nm.

For the origin of these results see the Deep4Chem optical property database.
